Experimental data taken from patent US20240158446A1, “CYCLIC COMPOUND HAVING SELECTIVE INHIBITORY ACTION ON KRAS OVER HRAS AND NRAS” (CHUGAI SEIYAKU KABUSHIKI KAISHA, priority 2021, published 2024).
Where a SMILES comes first, the peptide text is derived from it. Bridges are numbered along the chain shown (N, C = ends). [ ]: non-standard residue; d: D form. The star is where a group is joined. hPhe(3-Cl-4-CF3) = N[C@@H](CCc1ccc(C(F)(F)F)c(Cl)c1)C(=O)O; NPrPhe(4-CF3) = CCCN[C@@H](Cc1ccc(C(F)(F)F)cc1)C(=O)O; Pro(4-spirocPr) = O=C(O)[C@@H]1CC2(CC2)CN1; Morpholine(3S-CO) = O=C(O)[C@@H]1COCCN1; Pip(4,4-F2) = O=C(O)[C@@H]1CC(F)(F)CCN1; NMeGly(cPent) = CN[C@H](C(=O)O)C1CCCC1; Gly(cPent) = N[C@H](C(=O)O)C1CCCC1; Hyp = O=C(O)[C@@H]1C[C@@H](O)CN1; Gly(cBu) = N[C@H](C(=O)O)C1CCC1; NMeD = CN[C@@H](CC(=O)O)C(=O)O; NMeL = CN[C@@H](CC(C)C)C(=O)O; Pip = O=C(O)[C@@H]1CCCCN1; Morpholide = C1CN(*)CCO1; Ac5c = NC1(C(=O)O)CCCC1; Aze = O=C(O)[C@@H]1CCN1; NPrGly = CCCNCC(=O)O; NEtG = CCNCC(=O)O; Sar = CNCC(=O)O

Columns and labels:
[1] = biological target: GDP-bound KRAS wild-type protein (Homo sapiens, UniProt P01116); assay: Binding to KRAS by surface plasmon resonance (SPR), Single Cycle Kinetics; conditions: SPR Single Cycle Kinetics, GDP-bound KRAS wild-type protein, 1:1 binding model; read-out: KRAS KD
[2] = biological target: GDP-bound NRAS wild-type protein (Homo sapiens, UniProt P01111); assay: Binding to NRAS by surface plasmon resonance (SPR), Single Cycle Kinetics; conditions: SPR, GDP-bound NRAS wild-type protein vs GDP-bound KRAS wild-type protein
[3] = biological target: GDP-bound HRAS wild-type protein (Homo sapiens, UniProt P01112); assay: Binding to HRAS by surface plasmon resonance (SPR), Single Cycle Kinetics; conditions: SPR, GDP-bound HRAS wild-type protein vs GDP-bound KRAS wild-type protein
Sequence of GDP-bound HRAS wild-type protein (P01112 whole entry): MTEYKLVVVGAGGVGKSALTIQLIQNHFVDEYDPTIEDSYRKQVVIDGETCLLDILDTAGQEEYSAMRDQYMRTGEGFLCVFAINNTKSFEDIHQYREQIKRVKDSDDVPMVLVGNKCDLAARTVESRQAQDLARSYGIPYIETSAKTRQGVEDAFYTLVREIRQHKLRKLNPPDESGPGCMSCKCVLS

Sequence of GDP-bound KRAS wild-type protein (P01116 whole entry): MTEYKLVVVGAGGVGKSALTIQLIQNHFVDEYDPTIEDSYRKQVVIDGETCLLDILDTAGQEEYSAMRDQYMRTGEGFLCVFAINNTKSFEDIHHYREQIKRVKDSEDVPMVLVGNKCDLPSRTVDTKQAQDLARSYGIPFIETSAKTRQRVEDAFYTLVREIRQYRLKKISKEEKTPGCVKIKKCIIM
Sequence of GDP-bound NRAS wild-type protein (P01111 whole entry): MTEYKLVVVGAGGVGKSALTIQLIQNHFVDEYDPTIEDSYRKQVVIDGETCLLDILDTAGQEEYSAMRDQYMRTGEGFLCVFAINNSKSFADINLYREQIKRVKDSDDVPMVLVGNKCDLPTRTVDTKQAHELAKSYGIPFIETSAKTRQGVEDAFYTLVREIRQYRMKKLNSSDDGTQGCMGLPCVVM

Row | Compound | Kd [1] | NRAS/KRAS (ratio of KD value for NRAS to KD value for KRAS) [2] | HRAS/KRAS (ratio of KD value for HRAS to KD value for KRAS) [3]
1 | CCCN1C(=O)CN(C)C(=O)CN(CC)C(=O)[C@H](C2CCC2)NC(=O)[C@H](CC(C)C)N(C)C(=O)C[C@@H](C(=O)N2CCOCC2)N(C)C(=O)[C@H](C2CCCC2)N(C)C(=O)C2(CCCC2)NC(=O)[C@@H]2CCCN2C(=O)[C@H](CCc2ccc(C(F)(F)F)c(Cl)c2)NC(=O)CN(C)C(=O)[C@@H]1Cc1ccc(C(F)(F)F)cc1 [PP0292] ([NMeL][Gly(cBu)][NEtG][Sar][NPrPhe(4-CF3)][Sar][hPhe(3-Cl-4-CF3)]P[Ac5c][NMeGly(cPent)][NMeD]-Morpholide; lactam N-11) | 0.54 nM | B (a compound having 3 or more and less than 10 is denoted as B) | C (A compound having a KD ratio of 0.1 or more and less than 3 is denoted as C)
2 | CCCN1C(=O)CN(C)C(=O)CN(CC)C(=O)[C@H](C2CCCC2)NC(=O)[C@H](CC(C)C)N(C)C(=O)C[C@@H](C(=O)N2CCOCC2)N(C)C(=O)[C@H](C2CCCC2)N(C)C(=O)C2(CCCC2)NC(=O)[C@@H]2CCCN2C(=O)[C@H](CCc2ccc(C(F)(F)F)c(Cl)c2)NC(=O)CN(C)C(=O)[C@@H]1Cc1ccc(C(F)(F)F)cc1 [PP0293] ([NMeL][Gly(cPent)][NEtG][Sar][NPrPhe(4-CF3)][Sar][hPhe(3-Cl-4-CF3)]P[Ac5c][NMeGly(cPent)][NMeD]-Morpholide; lactam N-11) | 0.84 nM | B (a compound having 3 or more and less than 10 is denoted as B) | C (A compound having a KD ratio of 0.1 or more and less than 3 is denoted as C)
3 | CCCN1C(=O)CN(C)C(=O)CN(CC)C(=O)[C@H]([C@@H](C)CC)NC(=O)[C@H](CC(C)C)N(C)C(=O)C[C@@H](C(=O)N2CCOCC2)N(C)C(=O)[C@H](C2CCCC2)N(C)C(=O)C2(CCCC2)NC(=O)[C@@H]2CCN2C(=O)[C@H](CCc2ccc(C(F)(F)F)c(Cl)c2)NC(=O)CN(C)C(=O)[C@@H]1Cc1ccc(C(F)(F)F)cc1 [PP0294] ([NMeL]I[NEtG][Sar][NPrPhe(4-CF3)][Sar][hPhe(3-Cl-4-CF3)][Aze][Ac5c][NMeGly(cPent)][NMeD]-Morpholide; lactam N-11) | 1.7 nM | B (a compound having 3 or more and less than 10 is denoted as B) | C (A compound having a KD ratio of 0.1 or more and less than 3 is denoted as C)
4 | CCCN1C(=O)CN(C)C(=O)CN(CC)C(=O)[C@H]([C@@H](C)CC)NC(=O)[C@H](CC(C)C)N(C)C(=O)C[C@@H](C(=O)N2CCOCC2)N(C)C(=O)[C@H](C2CCCC2)N(C)C(=O)C2(CCCC2)NC(=O)[C@@H]2CC3(CC3)CN2C(=O)[C@H](CCc2ccc(C(F)(F)F)c(Cl)c2)NC(=O)CN(C)C(=O)[C@@H]1Cc1ccc(C(F)(F)F)cc1 [PP0295] ([NMeL]I[NEtG][Sar][NPrPhe(4-CF3)][Sar][hPhe(3-Cl-4-CF3)][Pro(4-spirocPr)][Ac5c][NMeGly(cPent)][NMeD]-Morpholide; lactam N-11) | 0.52 nM | B (a compound having 3 or more and less than 10 is denoted as B) | C (A compound having a KD ratio of 0.1 or more and less than 3 is denoted as C)
5 | CCCN1C(=O)CN(C)C(=O)CN(CC)C(=O)[C@H]([C@@H](C)CC)NC(=O)[C@H](CC(C)C)N(C)C(=O)C[C@@H](C(=O)N2CCOCC2)N(C)C(=O)[C@H](C2CCCC2)N(C)C(=O)C2(CCCC2)NC(=O)[C@@H]2C[C@@H](OC)CN2C(=O)[C@H](CCc2ccc(C(F)(F)F)c(Cl)c2)NC(=O)CN(C)C(=O)[C@@H]1Cc1ccc(C(F)(F)F)cc1 [PP0296] ([NMeL]I[NEtG][Sar][NPrPhe(4-CF3)][Sar][hPhe(3-Cl-4-CF3)][Hyp](Me)[Ac5c][NMeGly(cPent)][NMeD]-Morpholide; lactam N-11) | 0.15 nM | B (a compound having 3 or more and less than 10 is denoted as B) | C (A compound having a KD ratio of 0.1 or more and less than 3 is denoted as C)
6 | CCCN1C(=O)CN(C)C(=O)CN(CC)C(=O)[C@H]([C@@H](C)CC)NC(=O)[C@H](CC(C)C)N(C)C(=O)C[C@@H](C(=O)N2CCOCC2)N(C)C(=O)[C@H](C2CCCC2)N(C)C(=O)C2(CCCC2)NC(=O)[C@@H]2CC(F)(F)CCN2C(=O)[C@H](CCc2ccc(C(F)(F)F)c(Cl)c2)NC(=O)CN(C)C(=O)[C@@H]1Cc1ccc(C(F)(F)F)cc1 [PP0298] ([NMeL]I[NEtG][Sar][NPrPhe(4-CF3)][Sar][hPhe(3-Cl-4-CF3)][Pip(4,4-F2)][Ac5c][NMeGly(cPent)][NMeD]-Morpholide; lactam N-11) | 3 nM | B (a compound having 3 or more and less than 10 is denoted as B) | C (A compound having a KD ratio of 0.1 or more and less than 3 is denoted as C)
7 | CCCN1C(=O)CN(C)C(=O)CN(CC)C(=O)[C@H]([C@@H](C)CC)NC(=O)[C@H](CC(C)C)N(C)C(=O)C[C@@H](C(=O)N2CCOCC2)N(C)C(=O)[C@H](C2CCCC2)N(C)C(=O)C2(CCCC2)NC(=O)[C@@H]2COCCN2C(=O)[C@H](CCc2ccc(C(F)(F)F)c(Cl)c2)NC(=O)CN(C)C(=O)[C@@H]1Cc1ccc(C(F)(F)F)cc1 [PP0299] ([NMeL]I[NEtG][Sar][NPrPhe(4-CF3)][Sar][hPhe(3-Cl-4-CF3)][Morpholine(3S-CO)][Ac5c][NMeGly(cPent)][NMeD]-Morpholide; lactam N-11) | 1.4 nM | B (a compound having 3 or more and less than 10 is denoted as B) | B (a compound having 3 or more and less than 10 is denoted as B)
8 | CCCN1C(=O)CN(C)C(=O)CN(CC)C(=O)[C@H]([C@@H](C)CC)NC(=O)[C@H](CC(C)C)N(C)C(=O)C[C@@H](C(=O)N2CCOCC2)N(C)C(=O)[C@H](C2CCCC2)N(C)C(=O)C2(CCCC2)NC(=O)CN(C)C(=O)[C@H](CCc2ccc(C(F)(F)F)c(Cl)c2)NC(=O)CN(C)C(=O)[C@@H]1Cc1ccc(C(F)(F)F)cc1 [PP0300] ([NMeL]I[NEtG][Sar][NPrPhe(4-CF3)][Sar][hPhe(3-Cl-4-CF3)][Sar][Ac5c][NMeGly(cPent)][NMeD]-Morpholide; lactam N-11) | 1.4 nM | B (a compound having 3 or more and less than 10 is denoted as B) | C (A compound having a KD ratio of 0.1 or more and less than 3 is denoted as C)
9 | CCCN1CC(=O)NC2(CCCC2)C(=O)N(C)[C@@H](C2CCCC2)C(=O)N(C)[C@H](C(=O)N2CCOCC2)CC(=O)N(C)[C@@H](CC(C)C)C(=O)N[C@@H]([C@@H](C)CC)C(=O)N(CC)CC(=O)N(C)CC(=O)N(CCC)[C@@H](Cc2ccc(C(F)(F)F)cc2)C(=O)N(C)CC(=O)N[C@@H](CCc2ccc(C(F)(F)F)c(Cl)c2)C1=O [PP0301] ([NMeL]I[NEtG][Sar][NPrPhe(4-CF3)][Sar][hPhe(3-Cl-4-CF3)][NPrGly][Ac5c][NMeGly(cPent)][NMeD]-Morpholide; lactam N-11) | 4.8 nM | B (a compound having 3 or more and less than 10 is denoted as B) | C (A compound having a KD ratio of 0.1 or more and less than 3 is denoted as C)
10 | CCCN1C(=O)CN(C)C(=O)[C@@H]2CCN2C(=O)[C@H](C2CCC2)NC(=O)[C@H](CC(C)C)N(C)C(=O)C[C@@H](C(=O)N2CCOCC2)N(C)C(=O)[C@H](C2CCCC2)N(C)C(=O)C2(CCCC2)NC(=O)[C@@H]2CCCN2C(=O)[C@H](CCc2ccc(C(F)(F)F)c(Cl)c2)NC(=O)CN(C)C(=O)[C@@H]1Cc1ccc(C(F)(F)F)cc1 [PP0305] ([NMeL][Gly(cBu)][Aze][Sar][NPrPhe(4-CF3)][Sar][hPhe(3-Cl-4-CF3)]P[Ac5c][NMeGly(cPent)][NMeD]-Morpholide; lactam N-11) | 0.96 nM | B (a compound having 3 or more and less than 10 is denoted as B) | C (A compound having a KD ratio of 0.1 or more and less than 3 is denoted as C)
11 | CCCN1C(=O)CN(C)C(=O)[C@@H]2CCN2C(=O)[C@H]([C@@H](C)CC)NC(=O)[C@H](CC(C)C)N(C)C(=O)C[C@@H](C(=O)N2CCOCC2)N(C)C(=O)[C@H](C2CCCC2)N(C)C(=O)C2(CCCC2)NC(=O)[C@@H]2C[C@@H](OCC)CN2C(=O)[C@H](CCc2ccc(C(F)(F)F)c(Cl)c2)NC(=O)CN(C)C(=O)[C@@H]1Cc1ccc(C(F)(F)F)cc1 [PP0310] ([NMeL]I[Aze][Sar][NPrPhe(4-CF3)][Sar][hPhe(3-Cl-4-CF3)][Hyp](Et)[Ac5c][NMeGly(cPent)][NMeD]-Morpholide; lactam N-11) | 0.45 nM | B (a compound having 3 or more and less than 10 is denoted as B) | C (A compound having a KD ratio of 0.1 or more and less than 3 is denoted as C)
12 | CCCN1C(=O)CN(C)C(=O)[C@@H]2CCN2C(=O)[C@H]([C@@H](C)CC)NC(=O)[C@H](CC(C)C)N(C)C(=O)C[C@@H](C(=O)N2CCOCC2)N(C)C(=O)[C@H](C2CCCC2)N(C)C(=O)C2(CCCC2)NC(=O)[C@@H]2CCCCN2C(=O)[C@H](CCc2ccc(C(F)(F)F)c(Cl)c2)NC(=O)CN(C)C(=O)[C@@H]1Cc1ccc(C(F)(F)F)cc1 [PP0311] ([NMeL]I[Aze][Sar][NPrPhe(4-CF3)][Sar][hPhe(3-Cl-4-CF3)][Pip][Ac5c][NMeGly(cPent)][NMeD]-Morpholide; lactam N-11) | 3.3 nM | B (a compound having 3 or more and less than 10 is denoted as B) | B (a compound having 3 or more and less than 10 is denoted as B)
